Test system: vitiligo
Assay: Clinical study of treatment of vitiligo: central read facial-VASI (primary efficacy endpoint)
Format: in vivo, human
Conditions: for Placebo-adjusted LS mean CFB (SE); % CFB in Central F-VASI at Week 24: oral once daily
Experimental: Subjects take the medication set forth herein orally once daily, and typically swallow the tablets whole with approximately one cup of ambient temperature water, without any manipulation or chewing. Dosing regimes include induction dosing of 100 or 200 mg and maintenance dosing of 50 mg, or a 24-week Treatment Period in which participants were treated with ritlecitinib 50 mg, 30 mg, or 10 mg. The induction period is an initial period of treatment of 4 weeks in the initial clinical trial. The maintenance period is 20 weeks Tablets may be taken with or without food. Subject response is evaluated at regular intervals after administration. The Vitiligo Area Scoring Index (VASI) is a validated quantitative scale, initially developed to measure the response of vitiligo to nbUVB treatment, but has since been used to evaluate various therapies for vitiligo. Clinical evaluations of vitiligo in this study include VASI, central read and site assessment of facial-VASI, static Investigator Global Assessment (sIGA), Body Surface Area (BSA) involvement, Vitiligo Extent Score (VES), and dermoscopy. Self-Assessment VES (SA-VES), Vitiligo Specific Quality of Life (VitiQoL), Dermatology Life Quality Index (DLQL), Hospital Anxiety and Depression Scale (HADS), Patient Global Impression of Change Vitiligo (PGIC-V), EQ-5D-5L, Healthcare Resource Utilization (HCRU) and Vitiligo Noticeability Scale (VNS). (b) Facial Vitiligo Area Scoring Index (Facial-VASI)—Central Read The central read facial-VASI are assessed based on the facial photographs taken at the site by a central reader. Clinical Trial Imaging Endpoint Process Standards—Guidance for Industry (April 2018). The central read facial-VASI is calculated using a formula that includes contribution of affected facial surface areas showing all six (6) different depigmentation rates (0.1, 0.25, 0.5, 0.75, 0.9 and 1) with a modified method described by Hamzavi et al. Hamzavi, I., […] The calculation of % affected total body surface area (BSA) is shown below: • Affected Facial Surface Area×4=% Affected Total Body Surface Area. Face is defined as the area from the hairline on top of the forehead to the jawline at the bottom of the cheeks. Facial-VASI (central read) will range from 0.000 to 4.000 by defining the affected Facial Surface Area (expressed as the value between 0.0 to 1.0) being 4% of total Body Surface Area. For example: 25% affected Facial Surface Area (0.25) represents 1% total body surface area (0.25×4). 15% affected Facial Surface Area (0.15) represents 0.6% total body surface area (0.15×4). The extent of depigmentation is expressed by the following percentages: 0, 10%, 25%, 50%, 75%, 90%, or 100%. At 100% depigmentation, no pigment is present; at 90%, specks of pigment are present; at 75%, the depigmented exceeded the pigmented area; at 50%, the depigmented and pigmented areas are equal; at 25%, the pigmented area exceeded the depigmented area; and at 10%, only specks of depigmentation are present. Scalp, neck, eyebrows, eyelashes, and vermilion are excluded from this calculation, although total VASI assessment includes all of these regions.

## C=CC(=O)N1C[C@H](Nc2ncnc3[nH]ccc23)CC[C@@H]1C [Ritlecitinib, 1-[(2S,5R)-2-methyl-5-(7H-pyrrolo[2,3-d]pyrimidin-4-ylamino)-1-piperidinyl]-2-propen-1-one]
Initial clinical studies
  Efficacy criterion for the primary endpoint (% CFB in Central F-VASI at Week 24): met the efficacy criterion for the primary endpoint
Treatment group 10 mg, 24-week treatment period
  Placebo-adjusted LS mean CFB (SE); % CFB in Central F-VASI at Week 24: −4.13%
Treatment group 30 mg, 24-week treatment period
  Placebo-adjusted LS mean CFB (SE); % CFB in Central F-VASI at Week 24: −16.93%
Treatment group 50 mg, 24-week treatment period
  Placebo-adjusted LS mean CFB (SE); % CFB in Central F-VASI at Week 24: −22.05%
Treatment group 100/50 mg (induction 100 mg 4 weeks, maintenance 50 mg 20 weeks)
  Placebo-adjusted LS mean CFB (SE); % CFB in Central F-VASI at Week 24: −22.99%
Treatment group 200/50 mg (induction 200 mg 4 weeks, maintenance 50 mg 20 weeks)
  Placebo-adjusted LS mean CFB (SE); % CFB in Central F-VASI at Week 24: −23.62%
